Consider four compounds from paper PMC3835060 (2013).

The test system of assay [1] is HTS (human telomere sequence) d[AG3(TTAG3)3] (DNA, G4) AGGGTTAGGGTTAGGGTTAGGG
Put plainly: NMR titration (chemical shifts, intermolecular NOEs). The settings on record: 50 mM NaCl; pH 7, 283 K; binds at both loop ends.

The test system is the same in assay [2]. The assay can be described thus: luminescence titration. The settings on record: 200 mM KCl, 10 mM potassium phosphate, 1 mM K2EDTA, pH 7.0, 298 K, error ±20%.
Assay [3] has the same test system. The assay can be described thus: NMR titration (chemical shifts, line broadening). The settings on record: 50 mM NaCl, pH 7, 298 K.
Setting [4] is: 7 μM complex, one-set-of-sites fit.

SMILES strings stand for the structures.

As for `[Ru+2].[Ru+2].c1ccc(-c2ccccn2)nc1.c1ccc(-c2ccccn2)nc1.c1ccc(-c2ccccn2)nc1.c1ccc(-c2ccccn2)nc1.c1cnc2c(c1)c1nc3c4cccnc4c4ncccc4c3nc1c1cccnc12`, the binding result in assay [1] is given as “yes”.

Consider `[Ru+2].[Ru+2].c1cnc2c(c1)c1nc3c4cccnc4c4ncccc4c3nc1c1cccnc12.c1cnc2c(c1)ccc1cccnc12.c1cnc2c(c1)ccc1cccnc12.c1cnc2c(c1)ccc1cccnc12.c1cnc2c(c1)ccc1cccnc12`, for which, in assay [2] (apparent, diastereomeric mixture), the Kb is given as 1.77 × 10^7 M^–1.

On to `[Ru+2].[Ru+2].c1cnc2c(c1)c1nc3c4cccnc4c4ncccc4c3nc1c1cccnc12.c1cnc2c(c1)ccc1cccnc12.c1cnc2c(c1)ccc1cccnc12.c1cnc2c(c1)ccc1cccnc12.c1cnc2c(c1)ccc1cccnc12` [ΔΔ-2], for which the binding entry in assay [3] (binds mainly at lateral loop end) is on record as “yes”. In assay [2] (setting [4]), the Kb is on record as 2.95 × 10^5 M^–1.

Turning to `[Ru+2].[Ru+2].c1cnc2c(c1)c1nc3c4cccnc4c4ncccc4c3nc1c1cccnc12.c1cnc2c(c1)ccc1cccnc12.c1cnc2c(c1)ccc1cccnc12.c1cnc2c(c1)ccc1cccnc12.c1cnc2c(c1)ccc1cccnc12` [ΛΛ-2], in assay [3] (binds at both ends), the binding entry was “yes”. Also, the Kb in assay [2] (setting [4]) is reported as 1.16 × 10^7 M^–1.
